B1: BMP-2: bone morphogenetic protein, growth factor known to induce bone and cartilage formation and play a role in osteoblast differentiation (protein, listed as Homo sapiens)
chain: MVAGTRCLLALLLPQVLLGGAAGLVPELGRRKFAAASSGRPSSQPSDEVLSEFELRLLSMFGLKQRPTPSRDAVVPPYMLDLYRRHSGQPGSPAPDHRLERAASRANTVRSFHHEESLEELPETSGKTTRRFFFNLSSIPTEEFITSAELQVFREQMQDALGNNSSFHHRINIYEIIKPATANSKFPVTRLLDTRLVNQNASRWESFDVTPAVMRWTAQGHANHGFVVEVAHLEEKQGVSKRHVRISRSLHQDEHSWSQIRPLLVTFGHDGKGHPLHKREKRQAKHKQRKRLKSSCKRHPLYVDFSDVGWNDWIVAPPGYHAFYCHGECPFPLADHLNSTNHAIVQTLVNSVNSKIPKACCVPTELSAISMLYLDENEKVVLKNYQDMVVEGCGCR

Experiments:
[1] = test system: alkaline phosphatase activity; assay: BMP-2 induced alkaline phosphatase (ALP) enzyme activity assay in C2C12 cells; assay type: cell-based, Mouse
Description: (§1) Mouse C2C12 cells and Dulbecco's modified Eagle's medium (DMEM) were purchased from ATCC (Manassas, VA). The non-heat inactivated fetal bovine serum (FBS) was purchased from HyClone Laboratories, Inc. (Logan, UT). The C2C12 cells at passages 5 to 10 were subcultured in T-75 cm^2 flasks in DMEM supplemented with 10% FBS at 37° C. in 5% CO2 with humidification. When the flasks reached 80% confluence, the cells were trypsinized and seeded in triplicate at 200,000 cells/well in a 6-well plate for quantitative real-time RT-PCR and alkaline phosphatase (ALP) assays or at 50,000 cells/well in a 12-well plate for the dual-luciferase reporter assay.
The C2C12 cells were plated at 200,000 cells/well in 6-well plates and grown overnight in DMEM containing 10% FBS. On day 2, the culture medium was replaced with DMEM containing 2% FBS and the cells were treated with various concentrations of the Smurf1-interacting compound for 24 hours. On day 3, the medium was replaced with fresh DMEM containing 2% FBS and the cells were treated with 50 ng/ml of BMP-2 with or without compound for 72 hours. The cells were washed with phosphate-buffered saline (PBS) and lysed by addition of lysis buffer (10 mM Tris-HCl pH 8.0, 1 mM MgCl2 and 0.5% Triton X-100). The cell lysates were centrifuged for 5 minutes at 13,000×g. The supernatant was removed and the aliquots were assayed for ALP activity and protein amount. The ALP activity was measured in triplicate using an ALP assay kit (Sigma-Aldrich, St. Louis, MO) in microtiter plates. The protein amount was determined with Bio-Rad™ protein assay reagent (Bio-Rad, Hercules, CA) using bovine serum albumin (BSA) as a standard. The ALP activity (nmoles of p-nitrophenol per ml) was normalized to the protein amount (nmoles of p-nitrophenol per μg).
(§2) The EC50 values were calculated by determining the concentration by which 50% of maximum activity was reached using the sigmoidal fit equation. The 50% effective concentrations were determined with the standard curve analysis of SigmaPlot™ 8.02. […]

rat model = assay: in vivo bone-formation in rat model (ectopic bone induction); conditions: without any BMP-2
[2] = test system: alkaline phosphatase mRNA; assay: BMP-2 induced alkaline phosphatase mRNA level, quantitative real-time RT-PCR in C2C12 cells; assay type: cell-based, Mouse; conditions: for increase in alkaline phosphatase mRNA by BMP-2 alone: compared to no treatment control
Description: as §1
(§3) The C2C12 cells were plated at a density of 200,000 cells/well in 6-well plates and grown overnight in DMEM containing 10% FBS. On day 2, the culture medium was replaced with DMEM containing 2% FBS and the cells were treated with various concentrations of Smurf1-interacting compound (diluted from 10 mg/ml stock solutions prepared in DMSO) for 24 hours. In control cultures, a DMSO solvent concentration of 0.01% (v/v) was applied. On day 3, medium was replaced with fresh DMEM containing 2% FBS and the cells were treated with BMP-2 for 24 hours.
(§4) Total RNA was harvested using the RNeasy Mini Kit according to the manufacturer's instructions (Qiagen, Valencia, CA). The harvested RNA was digested with RNase-free DNase I (Qiagen, Valencia, CA) to remove DNA contamination. The concentration of the isolated RNA was determined by measuring the absorbance at 260 nm wave length with a spectrophotometer (Model DU 640, Beckman Coulter, Inc. Brea, CA). The ratio of A260/A280 was between 1.6 and 1.8. Reverse transcription was carried out to synthesize cDNA in a 100 μl volume with 2 μg of total RNA, 10×RT buffer, 5.5 mM MgCl2, 2 mM dNTP mixture, 0.125 μM oligo d(T), 0.125 μM random primer, 40 Units of RNase inhibitor, and 125 Units of MultiScribe™ (Applied Biosystems, Foster City, CA) for 10 minutes at 25° C., 30 minutes at 48° C., and 5 minutes at 95° C.
Quantitative real-time RT-PCR was performed to determine the mRNA expression level of ALP and osteocalcin. The sequences of the primers were as follows: ALP (forward, 5′-TCAGGGCAATGAGGTCACATC-3′; (SEQ ID NO: 6), reverse, 5′-CAC AAT GCC CAC GGA CTT C-3′) (SEQ ID NO: 7), osteocalcin (forward, 5′-CGGCCCTGAGTCTGACAAAG-3′; (SEQ ID NO: 8) reverse, 5′-CTCGTCACAAGCAGGGTCAA-3′ (SEQ ID NO: 9)). Twenty-five microliters of reaction volume included 5 μl of cDNA, 0.5 μl of 10 μM of each primer and 12.5 μl of 2×SYBR green master mix (Applied Biosystems). […]

[3] = test system: BMP-specific Smad1-driven 9×GCCG reporter; assay: BMP-2 induced Smad1-driven dual-luciferase reporter assay in C2C12 cells; assay type: cell-based, Mouse; conditions: BMP-2 1 ng/ml
Source text: A cell-based method was optimized to monitor BMP-2 induced responses. […] One can monitor transcriptional activity driven by activated Smad1 in C2C12 cells in a cell-based assay utilizing a Smad1-specific luciferase reporter plasmid containing a multimerized -GCCG- motif (9 copies). […] A concentration range of BMP-2 required for activating the reporter assay was established.
A BMP-specific Smad1-driven 9×GCCG (a consensus binding sequence for Smad1) reporter plasmid was used. The C2C12 cells were trypsinized and seeded in triplicate wells at 50,000 cells/well in 12-well plates on day 1. On day 2, the cells were cotransfected with the 9×GCCG-reporter construct and the renilla-luciferase control vector using SuperFect (Qiagen, Valencia, CA) for 24 hrs. […] On day 5, the luciferase activities were measured in 20 μl of cell-lysate using the dual-luciferase assay system (Promega, Madison, WI) with a luminometer (LumiCount™; Packard Bioscience, Meriden, CT) following the manufacturer's instructions. The luciferase activity was expressed as relative units of luciferase (RUL; a ratio of firefly luciferase to renilla luciferase activity). […]

osteocalcin mRNA = assay: BMP-2 induced osteocalcin mRNA level, quantitative real-time RT-PCR in C2C12 cells; assay type: cell-based, Mouse; conditions: for increase in osteocalcin mRNA by BMP-2 alone: compared to no treatment control
Description: as §1, §3, §4
Quantitative real-time RT-PCR was performed to determine the mRNA expression level of ALP and osteocalcin. The sequences of the primers were as follows: ALP (forward, 5′-TCAGGGCAATGAGGTCACATC-3′; (SEQ ID NO: 6), reverse, 5′-CAC AAT GCC CAC GGA CTT C-3′) (SEQ ID NO: 7), osteocalcin (forward, 5′-CGGCCCTGAGTCTGACAAAG-3′; (SEQ ID NO: 8) reverse, 5′-CTCGTCACAAGCAGGGTCAA-3′ (SEQ ID NO: 9)). Twenty-five microliters of reaction volume included 5 μl of cDNA, 0.5 μl of 10 μM of each primer and 12.5 μl of 2×SYBR green master mix (Applied Biosystems). Real-time PCR was performed with the following three-step protocol: step 1, 50° C. for 2 minutes; step 2, 95° C. for 10 minutes; step 3, 40 cycles of 95° C. for 15 seconds and 62° C. for 1 minute using the 7500 real-time PCR System (Applied Biosystems, Foster City, CA). To confirm the amplification specificity, the PCR products were subjected to a dissociation curve analysis. The threshold cycles (Ct) of each reaction were normalized to those obtained for 18S mRNA using the −ΔΔCt method (Applied Biosystems). All PCR reactions were performed in triplicate.
as §2

C2C12 cells = assay: cell lifting / cell number observation in C2C12 reporter assay; assay type: cell-based, Mouse; conditions: reduced number of cells at end of experiment
Description: Compounds were tested experimentally for their ability to potentiate BMP-2 activity in our luciferase reporter assay using C2C12 cells (FIGS. 5A and 5B).

C2C12 myoblasts = assay: BMP-2 responsiveness / osteoblastic transdifferentiation of C2C12 myoblasts, multiple assays; assay type: cell-based, Mouse
Source text: Derivatives with desired attributes can be evaluated using the procedure described below.
Compounds were selected by virtual screening for development based on computational modeling, docking, and in silico screening. […] (See Sangadala et al. (2007) Proteins 68: 690-701 and FIG. 2). The BMP-potentiating activities of compounds may be evaluated by monitoring several markers of the osteoblastic phenotype corresponding to various time points during phenotype differentiation of C2C12 cells towards terminally differentiated osteoblasts.

Molecule | EC50 ([1]; Mus musculus, C2C12, BMP-2 50 ng/ml, estimated) [µM] | maximal increase in BMP-2 induced ALP activity ([1]; compound 1.0 μg/ml, BMP-2 50 ng/ml, compared to BMP-2 alone, P<0.001) [fold] | bone-formation in rat model (rat model) | maximal increase in BMP-induced alkaline phosphatase mRNA level ([2]; BMP-2 20 ng/ml, compared to BMP-2 alone, P<0.05) [fold] | EC50 ([2]; Mus musculus, C2C12, BMP-2 20 ng/ml, estimated, read-out: EC50, expression of alkaline phosphatase mRNA) [µM] | EC50 ([3]; Mus musculus, C2C12, calculated from the Hill plot, read-out: EC50, potentiation of BMP-2 luciferase reporter activity) [µM] | optimum enhancement of BMP-2 induced luciferase activity ([3]; compound 1.0 μg/ml, compared to BMP-2 alone, P<0.05) [fold] | EC50 (osteocalcin mRNA; Mus musculus, C2C12, BMP-2 20 ng/ml, estimated, read-out: EC50, expression of osteocalcin mRNA) [µM] | effect of compound alone on osteocalcin mRNA (osteocalcin mRNA; absence of BMP-2) | maximal increase in BMP-induced osteocalcin mRNA level (osteocalcin mRNA; compound 1.0 μg/ml, BMP-2 20 ng/ml, compared to BMP-2 alone, P<0.05) [fold] | concentration causing lifting of some cells from the plates (C2C12 cells) | potentiation of BMP-2 induced transdifferentiation of C2C12 myoblasts into the osteoblastic phenotype (C2C12 myoblasts) | effective dose of compound among multiple assays (C2C12 myoblasts; C2C12 cells, BMP-2 induced markers) [µg/mL] | effect on BMP-2-induced response (C2C12 myoblasts; dose of 0.1 μg/ml) | efficacy relative to other derivatives in cell-based alkaline phosphatase assay ([1]; screening, FIG. 9) | increase in alkaline phosphatase mRNA by BMP-2 alone ([2]; absence of DMSO) [fold] | increase in alkaline phosphatase mRNA by BMP-2 alone ([2]; presence of DMSO (0.01%)) [fold] | increase in osteocalcin mRNA by BMP-2 alone (osteocalcin mRNA; absence of DMSO) [fold] | increase in osteocalcin mRNA by BMP-2 alone (osteocalcin mRNA; presence of DMSO (0.01%)) [fold]
C=Cc1nc(N)nc(N)n1 [Compound 12, 2,4-diamino-6-vinyl-1,3,5-triazine] | 3.7 | 4.8 | capable of inducing bone-formation | 3.5 | 1.5 to 5.3 | 2.6 | 3.8 | 1.5 to 5.3 | no significant effect | 4.4 | higher than 1.5 ug/ml | potentiate the effects of BMP-2 | 0.275 to 1.0 | elevated the BMP-2-induced response significantly |  |  |  |  | 
CC1(C)N=C(N)N=C(N)N1c1ccc(Cl)cc1 [Compound 12X, 1-(4-chlorophenyl)-4,6-diamino-1,2-dihydro-2,2-dimethyl-1,3,5-triazine] |  |  |  |  |  |  |  |  |  |  |  | potentiate the effects of BMP-2 |  |  | more efficacious |  |  |  | 
B1 |  |  |  |  |  |  |  |  |  |  |  |  |  |  |  | 43 | 51 | 9 | 7

From US11844802B2, “Compounds and compositions for ossification and methods related thereto” (Emory University, priority 2010, dated 2023)
